Structures are written as SMILES.

Alpha-glucosidase MAL32, sequence (P38158 whole entry): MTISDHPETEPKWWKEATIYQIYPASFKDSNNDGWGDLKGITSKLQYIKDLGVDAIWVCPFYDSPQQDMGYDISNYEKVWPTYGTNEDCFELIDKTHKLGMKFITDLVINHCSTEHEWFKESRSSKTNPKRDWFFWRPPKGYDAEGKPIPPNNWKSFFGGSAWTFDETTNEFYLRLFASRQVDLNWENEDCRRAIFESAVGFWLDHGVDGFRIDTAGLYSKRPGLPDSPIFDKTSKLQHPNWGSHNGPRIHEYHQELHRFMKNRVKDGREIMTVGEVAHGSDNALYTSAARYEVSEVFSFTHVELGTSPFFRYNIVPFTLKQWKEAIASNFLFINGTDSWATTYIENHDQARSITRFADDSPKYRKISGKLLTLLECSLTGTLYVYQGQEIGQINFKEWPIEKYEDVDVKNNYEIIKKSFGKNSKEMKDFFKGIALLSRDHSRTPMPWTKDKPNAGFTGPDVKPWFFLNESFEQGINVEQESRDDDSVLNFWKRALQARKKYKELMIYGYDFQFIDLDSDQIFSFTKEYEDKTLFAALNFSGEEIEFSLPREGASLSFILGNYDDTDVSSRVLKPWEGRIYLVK

The test has as its target Alpha-glucosidase MAL32 (Saccharomyces cerevisiae (strain ATCC 204508 / S288c), UniProt P38158). Description: alpha-Glucosidase Inhibition Assay. The note with it: pH 7; 37 °C. The method, then: The alpha-glucosidase inhibitory activity of test compounds was determined in a 96-well plate format. The reaction mixture containing enzyme and chromogenic substrate in the presence or absence of test compounds were incubated, and the amount of released p-nitrophenol was measured based on the absorbance at 405 nm. The IC50 values were calculated from the dose-response curves.
`COc1ccc2c(c1)CCc1ccc(cc1)Oc1cccc(c1)CCc1ccc-2c(OC)c1` [5,25-dimethoxy-14-oxapentacyclo[20.2.2.2^{10,13}.1^{15,19}.0^{2,7}]nonacosa-1(24),2(7),3,5,10,12,15,17,19(27),22,25,28-dodecaene]: the IC50 is over 30 µM. The result for `COc1ccc2cc1Oc1ccc(cc1)CCc1ccccc1-c1ccc(cc1)CC2` [16-methoxy-14-oxapentacyclo[20.2.2.2^{10,13}.1^{15,19}.0^{2,7}]nonacosa-1(24),2(7),3,5,10,12,15,17,19(27),22,25,28-dodecaene] reads over 100 µM; that for `CC(C)CC[C@@H](O)[C@@H](C)[C@H]1CCC2C3CC=C4C[C@@H](O)CC[C@]4(C)C3C[C@@H](C)C21` (stereo partly drawn) [(2R,5S,14S,16R)-14-[(2S,3R)-3-hydroxy-6-methylheptan-2-yl]-2,16-dimethyltetracyclo[8.7.0.0^{2,7}.0^{11,15}]heptadec-7-en-5-ol], 100 µM.

The record behind these values is BindingDB's records for doi:10.1016/j.bmc.2008.02.078 (University of Tokyo, 2008).
